Converted amounts (≈) assume the structure as drawn. Read-outs that look alike come from different tables or passages of the source.
How the values were obtained:
[1] = tested on: Bacillus subtilis ATCC 6 633; experiment: MIC, dilution in liquid medium; type: cell-based; conditions: for MIC: Bacillus subtilis
Experimental: (§1) The method used was a dilution of a liquid medium where a series of tubes received the same quantity of a sterile nutritive media and increasing doses of the test compounds were placed therein. Then each tube was seeded with a bacterial strain and was incubated for 24 to 48 hours at 37° C. in an oven. The increasing inhibition was determined by transillumination to determine the minimum inhibiting concentration (MIC in […]) and the results are reported in the following Tables.

[2] = tested on: Escherichia Coli Exp. TO26 B6; experiment: MIC, dilution in liquid medium; type: cell-based; conditions: for MIC: Escherichia coli
Experimental: as §1

[3] = tested on: Escherichia Coli Resistant Gentamicine, Tobramycine R 55 123 D; experiment: MIC, dilution in liquid medium; type: cell-based; conditions: Escherichia coli
Experimental: as §1

[4] = tested on: Escherichia Coli Resistant Tetracycline ATCC 11 303 = UC 1261; experiment: MIC, dilution in liquid medium; type: cell-based; conditions: Escherichia coli
Experimental: as §1

[5] = tested on: Escherichia Coli Sensible Tetracycline ATCC 9 637 = 1020; experiment: MIC, dilution in liquid medium; type: cell-based; conditions: for MIC: Escherichia coli
Experimental: as §1

[6] = tested on: Klebsiella pneumoniae 2 536 Resistant Gentamicine; experiment: MIC, dilution in liquid medium; type: cell-based; conditions: Klebsiella pneumoniae
Experimental: as §1

[7] = tested on: Klebsiella pneumoniae Exp. 52 145; experiment: MIC, dilution in liquid medium; type: cell-based; conditions: Klebsiella pneumoniae
Experimental: as §1

[8] = tested on: Proteus mirabilis (indol-) A 235; experiment: MIC, dilution in liquid medium; type: cell-based; conditions: Proteus mirabilis
Experimental: as §1

[9] = tested on: Proteus vulgaris (indol+) A 232; experiment: MIC, dilution in liquid medium; type: cell-based; conditions: for MIC: Proteus vulgaris
Experimental: as §1

Providencia Du 48 = experiment: MIC, dilution in liquid medium; type: cell-based; conditions: Providencia
Experimental: as §1

[10] = tested on: Pseudomonas 3 935 Exp. SG; experiment: MIC, dilution in liquid medium; type: cell-based; conditions: for MIC: Pseudomonas, 3935EXP.SG
Experimental: as §1

[11] = tested on: Salmonella typhimurium 420; experiment: MIC, dilution in liquid medium; type: cell-based; conditions: for MIC: Salmonella enterica, TYPHIMURIUM
Experimental: as §1

[12] = tested on: Serratia Resistant Gentamicine 2 532; experiment: MIC, dilution in liquid medium; type: cell-based
Experimental: as §1

[13] = tested on: Staphylococcus aureus ATCC 5 638 Pen-Sensible = UC 1061; experiment: MIC, dilution in liquid medium; type: cell-based
Experimental: as §1

[14] = tested on: Staphylococcus aureus UC 1 128 Pen-Resistant; experiment: MIC, dilution in liquid medium; type: cell-based; conditions: for MIC: Staphylococcus aureus
Experimental: as §1

[15] = tested on: Staphylococcus aureus exp. n° 54 146; experiment: MIC, dilution in liquid medium; type: cell-based; conditions: Staphylococcus aureus
Experimental: as §1

[16] = tested on: Streptococcus faecalis 5 432; experiment: MIC, dilution in liquid medium; type: cell-based
Experimental: as §1

[17] = tested on: Streptococcus faecalis 99 F 74; experiment: MIC, dilution in liquid medium; type: cell-based; conditions: Enterococcus faecalis
Experimental: as §1

[18] = tested on: Streptococcus pyogenes A 561; experiment: MIC, dilution in liquid medium; type: cell-based; conditions: Streptococcus pyogenes
Experimental: as §1

Proteus Mirabilis A 235 = experiment: Experimental infection of Proteus Mirabilis in mice; type: in vivo
Experimental: Groups of 10 mice with an average weight of 22 g received intraperitoneally 0.5 ml of a 24 hour old culture in oxoid bouillon of Proteus Mirabilis A 235 diluted 1/4 with distilled water. The mice then received subcutaneously the compound of Examples 11 or 15 one hour and 5 and 24 hours after the infection and the results are reported in the following Table.

[19] = Enterococcus faecalis, 5432, 48 h, 48 H

CCO/N=C(\C(=O)N[C@@H]1C(=O)N2C(C(=O)O)=C(COC(C)=O)CS[C@H]12)c1csc(N)n1 [Example 11, 3-acetoxymethyl-7-[2-(2-amino-4-thiazolyl)-2-ethoxyiminoacetamido]-ceph-3-eme-4-carboxylic acid]
M.I.C. ([1]; 24 H): 0,5 μg/ml
MIC ([1]; ATCC6, 24 h, 24 H, read-out: M.I.C.): 0.4 µg/mL (≈ 0.852 µM)
MIC ([1]; ATCC6, 48 h, 48 H, read-out: M.I.C.): 0.4 µg/mL (≈ 0.852 µM)
M.I.C. ([2]; 24 H): 0.4 µg/mL
M.I.C. ([2]; 48 H): 0.4 µg/mL
MIC ([3]; 24 h): 1 µg/mL (≈ 2.13 µM)
MIC ([3]; 24 h, read-out: M.I.C.): 0.6 µg/mL (≈ 1.28 µM)
MIC ([3]; 48 h): 1 µg/mL (≈ 2.13 µM)
MIC ([3]; 48 h, read-out: M.I.C.): 0.6 µg/mL (≈ 1.28 µM)
MIC ([4]; 24 h): ≤ 0.2 µg/mL
MIC ([4]; 24 h, read-out: M.I.C.): 0.5 µg/mL (≈ 1.06 µM)
M.I.C. ([5]; 24 H): 2 µg/mL
M.I.C. ([5]; 48 H): 2 µg/mL
MIC ([5]; ATCC9, 24 h, 24 H): 1 µg/mL (≈ 2.13 µM)
MIC ([5]; ATCC9, 48 h, 48 H): 1 µg/mL (≈ 2.13 µM)
MIC ([6]; 24 h): 2 µg/mL (≈ 4.26 µM)
MIC ([6]; 24 h, read-out: M.I.C.): 10 µg/mL (≈ 21.3 µM)
MIC ([6]; 48 h): 2 µg/mL (≈ 4.26 µM)
MIC ([6]; 48 h, read-out: M.I.C.): 10 µg/mL (≈ 21.3 µM)
MIC ([7]; EXP.52145, 24 h, 24 H, read-out: M.I.C.): 0.2 µg/mL (≈ 0.426 µM)
MIC ([7]; EXP.52145, 48 h, 48 H, read-out: M.I.C.): 0.2 µg/mL (≈ 0.426 µM)
MIC ([8]; 24 h, read-out: M.I.C.): 0.5 µg/mL (≈ 1.06 µM)
MIC ([8]; 48 h, read-out: M.I.C.): 0.5 µg/mL (≈ 1.06 µM)
M.I.C. ([9]; 48 H): 1 µg/mL
MIC ([9]; 24 h, read-out: M.I.C.): 0.5 µg/mL (≈ 1.06 µM)
MIC ([9]; 48 h): 2 µg/mL (≈ 4.26 µM)
MIC (Providencia Du 48; DU48, 24 h, 24 H): 5 µg/mL (≈ 10.6 µM)
MIC (Providencia Du 48; DU48, 48 h, 48 H): 5 µg/mL (≈ 10.6 µM)
M.I.C. ([10]; 24 H): 40 µg/mL
MIC ([10]; 24 h): 20 µg/mL (≈ 42.6 µM)
MIC ([10]; 48 h): 40 µg/mL (≈ 85.2 µM)
M.I.C. ([11]; 24 H): 2 µg/mL
M.I.C. ([11]; 48 H): 2 µg/mL
MIC ([11]; 24 h): 1 µg/mL (≈ 2.13 µM)
MIC ([11]; 48 h): 1 µg/mL (≈ 2.13 µM)
MIC ([12]; 24 h): 2 µg/mL (≈ 4.26 µM)
MIC ([13]; 24 h): 2 µg/mL (≈ 4.26 µM)
M.I.C. ([14]; 24 H): 3 µg/mL
M.I.C. ([14]; 48 H): 5 µg/mL
MIC ([14]; UC1, 24 h, 24 H): 2 µg/mL (≈ 4.26 µM)
MIC ([14]; UC1, 48 h, 48 H): 3 µg/mL (≈ 6.39 µM)
MIC ([15]; 24 h): 2 µg/mL (≈ 4.26 µM)
MIC [16, 19]: 40 µg/mL (≈ 85.2 µM)
MIC ([16]; Enterococcus faecalis, 5432, 48 h, read-out: M.I.C.): 10 µg/mL (≈ 21.3 µM)
MIC ([17]; 99F74, 48 h, 48 H): 20 µg/mL (≈ 42.6 µM)
MIC ([18]; A561, 24 h, 24 H, read-out: M.I.C.): 0.02 µg/mL (≈ 0.0426 µM)
MIC ([18]; A561, 48 h, 48 H, read-out: M.I.C.): 0.02 µg/mL (≈ 0.0426 µM)
MORTALITY AFTER 21H30 (Proteus Mirabilis A 235; 0.025 mg subcutaneously): 3
MORTALITY AFTER 22H15 (Proteus Mirabilis A 235; 0.025 mg subcutaneously): 1
MORTALITY AFTER 24H20 (Proteus Mirabilis A 235; 0.025 mg subcutaneously): 1
MORTALITY AFTER 28H (Proteus Mirabilis A 235; 0.025 mg subcutaneously): 2
MORTALITY AFTER 46H (Proteus Mirabilis A 235; 0.025 mg subcutaneously): 2
MORTALITY AFTER 53H (Proteus Mirabilis A 235; 0.025 mg subcutaneously): 1
Mice Alive on the 8th day (Proteus Mirabilis A 235; 0.025 mg subcutaneously): 0/10
MORTALITY AFTER 22H15 (Proteus Mirabilis A 235; 0.05 mg subcutaneously): 1
MORTALITY AFTER 24H20 (Proteus Mirabilis A 235; 0.05 mg subcutaneously): 1
MORTALITY AFTER 31H45 (Proteus Mirabilis A 235; 0.05 mg subcutaneously): 1
MORTALITY AFTER 70H (Proteus Mirabilis A 235; 0.05 mg subcutaneously): 2
Mice Alive on the 8th day (Proteus Mirabilis A 235; 0.05 mg subcutaneously): 5/10
MORTALITY AFTER 28H (Proteus Mirabilis A 235; 0.1 mg subcutaneously): 1
MORTALITY AFTER 46H (Proteus Mirabilis A 235; 0.1 mg subcutaneously): 2
Mice Alive on the 8th day (Proteus Mirabilis A 235; 0.1 mg subcutaneously): 7/10
Mice Alive on the 8th day (Proteus Mirabilis A 235; 0.25 mg subcutaneously): 10/10
Mice Alive on the 8th day (Proteus Mirabilis A 235; 0.5 mg subcutaneously): 10/10
Mice Alive on the 8th day (Proteus Mirabilis A 235; 1 mg subcutaneously): 10/10

CO/N=C(/C(=O)NC1C(=O)N2C(C(=O)O)=C(COC(C)=O)CSC12)c1csc(N)n1 (stereo not drawn) [Product A, anti isomer of 3-acetoxymethyl-7-[2-(2-amino-4-thiazolyl)-2-methoxyimino-acetamido]-ceph-3-eme-4-carboxylic acid]
MIC ([1]; ATCC6, 24 h, 24 H): 20 µg/mL (≈ 43.9 µM)
MIC ([1]; ATCC6, 48 h, 48 H): 20 µg/mL (≈ 43.9 µM)
MIC ([2]; 24 h): 5 µg/mL (≈ 11 µM)
MIC ([2]; 48 h): 5 µg/mL (≈ 11 µM)
MIC ([3]; 24 h, read-out: M.I.C.): 10 µg/mL (≈ 22 µM)
MIC ([3]; 48 h, read-out: M.I.C.): 10 µg/mL (≈ 22 µM)
MIC ([4]; 24 h): 2 µg/mL (≈ 4.39 µM)
MIC ([4]; 48 h): 2 µg/mL (≈ 4.39 µM)
MIC ([5]; ATCC9, 24 h, 24 H): 20 µg/mL (≈ 43.9 µM)
MIC ([5]; ATCC9, 48 h, 48 H): 40 µg/mL (≈ 87.8 µM)
MIC ([6]; 24 h): > 40 µg/mL
MIC ([6]; 48 h): > 40 µg/mL
MIC ([7]; EXP.52145, 24 h, 24 H): 1 µg/mL (≈ 2.2 µM)
MIC ([7]; EXP.52145, 48 h, 48 H): 1 µg/mL (≈ 2.2 µM)
MIC ([8]; 24 h): 2 µg/mL (≈ 4.39 µM)
MIC ([8]; 48 h): 2 µg/mL (≈ 4.39 µM)
MIC ([9]; 24 h): > 40 µg/mL
MIC ([9]; 48 h): > 40 µg/mL
MIC (Providencia Du 48; DU48, 24 h, 24 H): 40 µg/mL (≈ 87.8 µM)
MIC (Providencia Du 48; DU48, 48 h, 48 H): > 40 µg/mL
MIC ([10]; 24 h): > 40 µg/mL
MIC ([10]; 48 h): > 40 µg/mL
MIC ([11]; 24 h): 20 µg/mL (≈ 43.9 µM)
MIC ([12]; 24 h): > 40 µg/mL
MIC ([12]; 48 h): > 40 µg/mL
MIC ([13]; 24 h): 40 µg/mL (≈ 87.8 µM)
MIC ([13]; 48 h): 40 µg/mL (≈ 87.8 µM)
MIC ([14]; UC1, 24 h, 24 H): > 40 µg/mL
MIC ([14]; UC1, 48 h, 48 H): > 40 µg/mL
MIC ([15]; 24 h): 40 µg/mL (≈ 87.8 µM)
MIC ([15]; 48 h): 40 µg/mL (≈ 87.8 µM)
MIC ([16]; Enterococcus faecalis, 5432, 24 h, 24 H): > 40 µg/mL
MIC [16, 19]: > 40 µg/mL
MIC ([17]; 99F74, 24 h, 24 H): > 40 µg/mL
MIC ([17]; 99F74, 48 h, 48 H): > 40 µg/mL
MIC ([18]; A561, 24 h): 0.4 µg/mL (≈ 0.878 µM)
MIC ([18]; A561, 48 h): 0.4 µg/mL (≈ 0.878 µM)

From patent US4196205A, “3-Acetoxymethyl-7-(iminoacetamido)-cephalosporanic acid derivatives” (priority 1976, dated 1980)
